The record followed here is ChEMBL document CHEMBL3430912, “GSK Tres Cantos Anti-Kinetoplastid Screening (TCAKS) Data”.

The target of series [1] is Sterol 14-alpha demethylase (Trypanosoma cruzi (strain CL Brener), UniProt Q7Z1V1). Description: GSK_TCAKS: pIC50 CYP51 from Trypanosoma cruzi. In kind it is functional.
The subject of series [2] is Trypanosoma cruzi. The series is described as follows: (§1) GSK_TCAKS: pIC50 Trypanosoma cruzi Imaging: Amastigotes/Cell. […] Cells were then washed once with PBS before infection. T. cruzi trypomastigotes, collected at days 5 to 8 after infection from LLC-MK2 parasite infected cultures, were allowed to swim out for 4h at 37C from a centrifuged pellet (2,500 rpm/10 min/room temperature). Trypomastigotes were then collected and counted in a CASY Cell Counter. Trypomastigotes, in supplemented DMEM, were added to H9c2 cultures in a multiplicity of infection of 1 and incubated for 18 h. Cells were washed once with PBS before incubation of the infected H9c2 monolayer with trypsin (Life-Technologies) to detach cells from the flask. Cells were counted in a CASY Cell Counter using a 150 um capillary and their density set at 5 * 10^4 cells per mL in supplemented assay DMEM. Infected H9c2 were dispensed into 384-well poly-lysine coated assay plates at 50uL per well using a Multidrop Combi dispenser. After seeding them, the plates were incubated at 37C, 5% CO2 for 72h. Cultures were then fixed and stained by addition of 50 uL of a solution containing 8% formaldehyde and 4 uM DRAQ5 DNA dye (BioStatus, UK) per well. […] Five images were collected per well for reliable statistical analysis. Automated image analysis was performed with a script developed on Acapella High Content Imaging and Analysis Software (PerkinElmer). Output: number of amastigotes per cell as infection level measurement. Particulars: H9c2, 4 h. Format: functional, organism-based, Rattus norvegicus.

The subject of series [3] is Trypanosoma cruzi. The series is described as §1, with “H2C9” for “Trypanosoma cruzi”, “H9c2 Host Cardiomyocytes.” for “Amastigotes/Cell.”, “Number” for “number”, “H9c2 Host Cardiomyocytes nuclei to determine drug-related cytotoxicity.” for “amastigotes per cell as infection level measurement.”. Particulars: H9c2, 4 h. Format: functional, organism-based, Rattus norvegicus.

The subject of series [4] is Leishmania donovani. The series is described as follows: GSK_TCAKS: pIC50 Leishmania donovani Imaging: THP-1 Host Macrophages. Assay plates (384-well) were prepared by adding 250nL of compound to each well. For single shot assay, the final compound concentration was 5 uM. […] Automated image analysis was performed with a script developed on Acapella High Content Imaging and Analysis Software (PerkinElmer). Output: THP-1 cell count were reported for each well. In kind it is functional, organism-based, Homo sapiens.

The test system of series [5] is Leishmania donovani. The series is described as follows: GSK_TCAKS: pIC50 Leishmania donovani Imaging: Amastigotes/Macrophages. Assay plates (384-well) were prepared by adding 250nL of compound to each well. For single shot assay, the final compound concentration was 5 uM. […] Automated image analysis was performed with a script developed on Acapella High Content Imaging and Analysis Software (PerkinElmer). Output: Average number of amastigotes per macrophage cell were reported for each well. In kind it is functional, organism-based, Homo sapiens. Particulars: THP-1.

The subject of series [6] is Trypanosoma brucei brucei. The series is described as follows: GSK_TCAKS: pIC50 Trypanosoma brucei viability assay using luminiscence. Assay plates (1536-well) were prepared. T. brucei cultures were harvested and counted in a CASY cell counter. A parasite suspension was prepared at a final concentration of 5 * 10^4 cells/mL in complete HMI9 medium and 6uL was dispensed to all wells containing compounds using a Multidrop Combi dispenser. 6uL of HMI9 media with 0.4% DMSO were dispensed to control columns. Plates were incubated for 24 h at 37C, 5% CO2 then tempered for 10 min at room temperature. ATP content was quantified by adding 4 uL of CellTiter-Glo Reagent (Promega) according to the manufacturer's instructions. Luminescence was measured using a ViewLux. Particulars: Lister 427, CASY. In kind it is functional, organism-based. Background: ATP-based viability assays read luminescence as a measure of living cells.

Series [7] concerns Trypanosoma cruzi. Description: GSK_TCAKS: pIC50 Trypanosoma cruzi viability assay using beta-GAL activity. This assay was run at single shot at 5uM compound concentration per well. The biological reagents consisted of NIH-3T3 host cells and trypomastigotes parasitic cells; both cell types were set to a 3.3 * 10^5 cells/mL dilution in assay DMEM by means of a CASY cell counter device using a 60um capillary. 6 uL of the mixture were dispensed per well (about 1 * 10^3 host-cells and 1 * 10^3 parasites) with a Multidrop Combi dispenser. […] In all wells, the percentage of DMSO never exceeded 0.5%. Plates incubated for four days at 37C, 5% CO2. The substrate used for the assay fluorescence intensity (FLINT) readout was resorufin-beta-D-galactopiranoside (Sigma-Aldrich) at 5uM per well. It was diluted in PBS supplemented with the soft detergent Igepal (Fluka). In kind it is functional, organism-based, Mus musculus. Particulars: Tulahuen, NIH3T3.

A short description of series [8]: GSK_TCAKS: pIC50 HepG2 human cell line viability assay using luminiscence. […] Seeding density was checked to ensure that new mono-layers were not more than 50% confluent at the time of harvesting. Cell suspension was added to 500 mL of the same medium at a final density of 1.2 * 10^5 cells/mL. This cell suspension was dispensed (25 uL, 3000 cells per well) into 384-well clear-bottom plates using a Multidrop Combi dispenser. Prior to addition of the cell suspension, the screening compounds (250 nL) were pre-dispensed into the plates with an Echo liquid handler. Plates were incubated for 48 h at 37C, 5% CO2. After incubation, plates equilibrated at room temperature for 30 min before proceeding to develop the luminescent signal. The signal developer, CellTiter-Glo Reagent, was allowed to equilibrate at room temperature for 30 min and added to the plates (25uL per well) using a Multidrop Combi dispenser. Plates were left for 10 min at room temperature for stabilization and then read using a ViewLux. Format: toxicity, cell-based.

Series [9] deals with Trypanosoma brucei brucei. Description: GSK_TCAKS: pIC50 Trypanosoma brucei viability assay using fluorescence intensity. Assay plates (1536-well) were prepared by dispensing 25nL of compound solution per well using an Echo acoustic dispenser (Labcyte). In kind it is functional, organism-based. Particulars: Lister 427, 2 h.
Series [10] deals with Leishmania donovani. The series is described as follows: GSK_TCAKS: pIC50 Leishmania donovani Imaging: Infected Macrophages. Assay plates (384-well) were prepared by adding 250nL of compound to each well. For single shot assay, the final compound concentration was 5 uM. […] Automated image analysis was performed with a script developed on Acapella High Content Imaging and Analysis Software (PerkinElmer). Output: Percent of infected macrophage cells were reported for each well. To be noted: THP-1. Format: functional, organism-based, Homo sapiens.

Series [11] has as its system Trypanosoma cruzi. The series is described as follows: GSK_TCAKS: pIC50 Trypanosoma cruzi Imaging: Infected Cells. […] Cells were then washed once with PBS before infection. T. cruzi trypomastigotes, collected at days 5 to 8 after infection from LLC-MK2 parasite infected cultures, were allowed to swim out for 4h at 37C from a centrifuged pellet (2,500 rpm/10 min/room temperature). Trypomastigotes were then collected and counted in a CASY Cell Counter. Trypomastigotes, in supplemented DMEM, were added to H9c2 cultures in a multiplicity of infection of 1 and incubated for 18 h. Cells were washed once with PBS before incubation of the infected H9c2 monolayer with trypsin (Life-Technologies) to detach cells from the flask. Cells were counted in a CASY Cell Counter using a 150 um capillary and their density set at 5 * 10^4 cells per mL in supplemented assay DMEM. Infected H9c2 were dispensed into 384-well poly-lysine coated assay plates at 50uL per well using a Multidrop Combi dispenser. After seeding them, the plates were incubated at 37C, 5% CO2 for 72h. Cultures were then fixed and stained by addition of 50 uL of a solution containing 8% formaldehyde and 4 uM DRAQ5 DNA dye (BioStatus, UK) per well. […] Five images were collected per well for reliable statistical analysis. Automated image analysis was performed with a script developed on Acapella High Content Imaging and Analysis Software (PerkinElmer). Output: percentage of infected cells per well as a second infection marker. In kind it is functional, organism-based, Rattus norvegicus. To be noted: H9c2, 4 h.

Series [12] deals with Leishmania donovani. Description: GSK_TCAKS: pIC50 Leishmania donovani viability assay using fluorescence intensity. Assay plates (1536-well) were prepared by adding 30nL per well of compound. For single shot assay, the final compound concentration was 5uM. […] Briefly, eGFP LdBOB axenic amastigotes were harvested, fixed and counted in a CASY cell counter (Roche-Applied Science). A final concentration of 1.5 * 10^5 cells per well were prepared in amastigote media containing 500 U/mL penicillin/streptomycin (Invitrogen) and 6uL was dispensed to each experimental well using a Multidrop Combi dispenser (Thermo Scientific). 6uL of assay media was dispensed to control columns used as reference for 100% compound response. Following incubation for 72 h at 37C, 5% CO2, 2 uL of resazurin was added to each well at a final concentration of 0.5 mM in phosphate buffered saline (PBS) with IGEPAL (Sigma-Aldrich), 0.05% (v/v). Format: functional, organism-based. Background: Alamar Blue is a resazurin reagent that responds to reducing activity.

Sterol 14-alpha demethylase, sequence (Q7Z1V1 whole entry): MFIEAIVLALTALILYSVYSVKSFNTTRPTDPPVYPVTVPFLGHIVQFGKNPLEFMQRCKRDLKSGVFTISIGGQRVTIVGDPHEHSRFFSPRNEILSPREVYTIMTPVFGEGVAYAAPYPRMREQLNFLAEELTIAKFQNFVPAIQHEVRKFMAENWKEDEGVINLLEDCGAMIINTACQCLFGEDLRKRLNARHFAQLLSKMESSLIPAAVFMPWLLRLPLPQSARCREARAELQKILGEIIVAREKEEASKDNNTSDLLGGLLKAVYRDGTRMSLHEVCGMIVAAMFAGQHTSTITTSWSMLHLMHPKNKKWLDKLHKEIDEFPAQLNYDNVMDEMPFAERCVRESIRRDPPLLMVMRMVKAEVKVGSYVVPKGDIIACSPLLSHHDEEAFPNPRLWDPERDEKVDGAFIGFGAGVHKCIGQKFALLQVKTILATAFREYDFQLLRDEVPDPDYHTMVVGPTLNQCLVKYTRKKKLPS

A word on the IC50: it is the point on the concentration scale where inhibition reaches its midpoint. For the molecule `CCCc1cc(N)nc(-c2cc(CCC)cc(N)n2)c1`, the IC50 in series [1] was above 100 µM; with Trypanosoma cruzi [2], 0.501 µM; in the series with Trypanosoma cruzi [3] it was 0.2 µM; in the series with Leishmania donovani [4] it was 20 µM; in the series with Leishmania donovani [5] it was 1.58 µM; in [6] it was 7.94 µM. Also, the half-inhibitory concentration (IC50) in the series with Trypanosoma cruzi [7] was 2 µM; in series [9], 3.16 µM; in the series on Leishmania donovani [10] it was 2.51 µM; with Trypanosoma cruzi [11], 0.631 µM; in the series with Leishmania donovani [12], 20 µM. Further, in [8], the midpoint of inhibition, the IC50 at 48 h, lay at 31.6 µM.
Turning to `Cc1cc(NC(=O)C2CC2)ccc1OC1CCN(Cc2ccco2)CC1`, the IC50 in series [1] is 63.1 µM; in the series on Trypanosoma cruzi [2], 20 µM; in the series on Trypanosoma cruzi [3], 39.8 µM; with Leishmania donovani [4], 12.6 µM; with Leishmania donovani [5], 12.6 µM; in series [6], 0.251 µM. Further, the IC50 in the series on Trypanosoma cruzi [7] was 15.8 µM; in series [9], 0.126 µM; with Leishmania donovani [10], 20 µM; with Trypanosoma cruzi [11], 39.8 µM; in the series on Leishmania donovani [12], above 50.1 µM. The molecule further had an IC50 at 48 h in series [8] of 50.1 µM.
In the case of `COc1cccc(-c2c(C)nn(-c3nc(N)nc(-c4ccccn4)n3)c2N)c1`, the half-maximal inhibitory concentration (IC50) in [1] is above 100 µM; with Trypanosoma cruzi [2] it was 0.501 µM; with Trypanosoma cruzi [3], above 50.1 µM; in the series on Leishmania donovani [4], above 50.1 µM; in the series on Leishmania donovani [5], 1.58 µM; in series [6], above 39.8 µM. Also, the IC50 in the series on Trypanosoma cruzi [7] was 2.51 µM; in [9], above 39.8 µM; in the series on Leishmania donovani [10] it was 2 µM; in the series on Trypanosoma cruzi [11], 2 µM; in the series on Leishmania donovani [12], 5.01 µM. The molecule also gave an IC50 at 48 h in series [8] above 100 µM.
With `O=C(CN(Cc1ccccn1)Cc1ccccn1)NC1Cc2ccccc2C1`, the IC50 is 79.4 µM in series [1]; 6.31 µM in the series with Trypanosoma cruzi [2]; above 79.4 µM with Trypanosoma cruzi [3]; above 79.4 µM in the series on Leishmania donovani [4]; 5.01 µM in the series on Leishmania donovani [5]; 12.6 µM in series [6]. The IC50 in the series on Trypanosoma cruzi [7] was 5.01 µM; in [9], 20 µM; with Leishmania donovani [10] it was 5.01 µM; with Trypanosoma cruzi [11] it was 12.6 µM; in the series on Leishmania donovani [12], 12.6 µM. The molecule further gave an IC50 at 48 h in series [8] above 158 µM.
`COc1ccc(CNc2nsc3ccccc23)cc1OC`: the IC50 in [1] is 12.6 µM; in the series on Trypanosoma cruzi [2], 20 µM; with Trypanosoma cruzi [3], above 50.1 µM; with Leishmania donovani [4], 25.1 µM; with Leishmania donovani [5] it was 5.01 µM; in series [6] it was 6.31 µM. Besides, the IC50 was 6.31 µM with Trypanosoma cruzi [7]; 7.94 µM in [9]; 6.31 µM in the series with Leishmania donovani [10]; 25.1 µM with Trypanosoma cruzi [11]; 3.16 µM in the series on Leishmania donovani [12]. The same molecule gave an IC50 at 48 h in series [8] of 50.1 µM.
In the case of `CC(CCc1ccccc1)NC(=O)CN(Cc1ccccn1)Cc1ccccn1` (centres undefined), the IC50 was 63.1 µM in series [1]; 3.16 µM in the series with Trypanosoma cruzi [2]; above 79.4 µM with Trypanosoma cruzi [3]; 20 µM in the series with Leishmania donovani [4]; 3.16 µM in the series on Leishmania donovani [5]; 5.01 µM in series [6]. The IC50 in the series on Trypanosoma cruzi [7] is 2.51 µM; in series [9], 10 µM; in the series with Leishmania donovani [10], 3.16 µM; in the series with Trypanosoma cruzi [11], 10 µM; in the series on Leishmania donovani [12] it was 7.94 µM. Also, in series [8], the IC50 at 48 h was above 158 µM.
Turning to `COc1cccc(C(=O)[C@H]2C[C@@H]2CN(Cc2ccccn2)Cc2ccccn2)c1`, the IC50 in [1] was 31.6 µM; in the series on Trypanosoma cruzi [2], 0.794 µM; in the series with Trypanosoma cruzi [3], 20 µM; in the series on Leishmania donovani [4], above 50.1 µM; in the series with Leishmania donovani [5] it was 1.58 µM; in series [6], 20 µM. In addition, the IC50 with Trypanosoma cruzi [7] is 1.26 µM; in [9], 15.8 µM; in the series on Leishmania donovani [10], 2 µM; in the series with Trypanosoma cruzi [11], 1.26 µM; in the series with Leishmania donovani [12], 7.94 µM. For the same molecule, the half-inhibitory concentration (IC50) at 48 h in [8] is above 100 µM.
